What was measured:
[1] = system: human myotubes; test: Lipogenesis and lipid distribution: acetate incorporation into FFA, DAG and TAG in myotubes; format: cell-based; conditions: compared to control myotubes; for FFA synthesis from labeled acetate, increase / level of TAG from labeled acetate: 1 μM T0901317 or 10 μM 22-HC for 4 days; for level of DAG from labeled acetate: 1 μM T0901317 or 10 μM 22-R-HC for 4 days
Method: Human myoblasts were differentiated and treated with LXR ligands as described in FIG. 3. The cells were then incubated with [1-^14C]acetate (2 μCi/ml, 0.1 mM) for 4 h before levels of free fatty acids (FFA), diacylglycerol (DAG) and triacylgycerol (TAG) were determined. Results present means±SEM (n=5; independent muscle cell donors). **p<0.05 vs all other treatments, ^#p<0.05 vs T0901317. Human skeletal muscle cell cultures. […] The biopsies were obtained with informed consent and by approval of the National Committee for Research Ethics, Oslo, Norway. Muscle cell cultures free of fibroblasts were established by the method of Henry et al. (Diabetes, 44, 936-946, 1995), with minor modifications. Briefly, muscle tissue was dissected in Ham's F-10 media at 4° C., dissociated by three successive treatments with 0.05% trypsin/EDTA, and satellite cells were re-suspended in SkGM with 2% FCS and no added insulin. The cells were grown on culture wells coated with ECM gel (Apmis, 109, 726-734, 2001). At about 80% confluence, fusion of myoblasts into multinucleated myotubes was achieved by growth in DMEM with 2% FCS. All cells used were at passage 4 to 6. After 2 days in DMEM the cells were exposed to vehicle (0.1% DMSO), 1 μM T0901317, 10 μ[…]-hydroxycholesterol (22-R-HC) or 10 μ[…]-hydroxycholesterol (22-S-HC) for 4 days. Lipogenesis and lipid distribution. Myotubes were exposed to DMEM supplemented with [1-^14C]acetic acid (2 μCi/ml, 0.1 mM) for 4 h to study lipogenesis and acetate incorporation into TAG and diacylglycerol (DAG). Myotubes were harvested and analyzed as described above (Palmitate uptake and lipid distribution).

[2] = system: LXR target genes; test: Gene expression of LXR target genes in myotubes by Real-Time RT-PCR; format: cell-based, human; conditions: for expression of LXRα, increase / expression of SREBP1c, increase: mRNA normalized to 36B4; for mRNA expression of ACSL1, increase / mRNA expression of FAS, increase / mRNA expression of SCD-1, increase / mRNA expression of fatty acid transporter CD36, increase: 1 μM T0901317 or 10 μM 22-R-HC for 4 days; for mRNA expression of CD36, FAS, ACSL1 and SCD-1 compared to T0901317: 10 μM for 4 days vs 1 μM T0901317
From the text: FIG. 5. Effects of 22-hydroxycholesterols on expression of LXR target genes in human myotubes. Human myoblasts were differentiated and treated with LXR ligands as described in FIG. 3. Total RNA were isolated from the cells, reversely transcribed and analyzed by Real-Time RT-PCR. Results are normalized to levels of 36B4 and present means±SEM (n=4-6; independent muscle cell donors). Relative expressions of (A) liver X receptor […], LXRβ, and sterol regulatory element-binding protein (SREBP)1c, (B) ATP-binding cassette transporter (ABC)A1 (C) acyl-CoA synthetase long chain family member 1 (ACSL1), fatty acid transporter (CD36), fatty acid synthase (FAS), and stearoyl-CoA desaturase (SCD)-1. *p<0.05 vs control, **p<0.05 vs all other treatments.
Human skeletal muscle cell cultures. A cell bank of satellite cells was established from muscle biopsy samples of the M. vastus lateralis of 6 healthy volunteers, age 25.7 years (±1.4), with BMI 21.6 (±1.0) and fasting glucose and insulin within normal range. The biopsies were obtained with informed consent and by approval of the National Committee for Research Ethics, Oslo, Norway. Muscle cell cultures free of fibroblasts were established by the method of Henry et al. (Diabetes, 44, 936-946, 1995), with minor modifications. Briefly, muscle tissue was dissected in Ham's F-10 media at 4° C., dissociated by three successive treatments with 0.05% trypsin/EDTA, and satellite cells were re-suspended in SkGM with 2% FCS and no added insulin. The cells were grown on culture wells coated with ECM gel (Apmis, 109, 726-734, 2001). At about 80% confluence, fusion of myoblasts into multinucleated myotubes was achieved by growth in DMEM with 2% FCS. All cells used were at passage 4 to 6. After 2 days in DMEM the cells were exposed to vehicle (0.1% DMSO), 1 μM T0901317, 10 μM 22-R-hydroxycholesterol (22-R-HC) or 10 μM 22-S-hydroxycholesterol (22-S-HC) for 4 days.
RNA isolation and analysis of gene expression by RT-PCR. Myotubes were washed, trypsinized and pelleted before total RNA was isolated by RNeasy Mini kit (Qiagen Sciences, Oslo, Norway) or Agilent Total RNA Mini kit (Matrix, Oslo, Norway) according to the suppliers total RNA isolation protocol. RNA samples were incubated with RNase-free DNase (Qiagen Sciences) for minimum 15 min in an additional step during the RNA isolation procedure. Total RNA (1 μg/μl) was reversely transcribed with hexamere primers using a Perkin-Elmer Thermal Cycler 9600 (25° C. for 10 min, 37° C. for 1 h, 99° C. for 5 min) and a TaqMan reverse-transcription reagents kit (Applied Biosystems). Real time PCR was performed using an ABI PRISM® 7000 Detection System. DNA expression was determined by SYBR® Green (Applied Biosystems), and primers [36B4 (Acc#M17885), ACSL1 (Acc#NM_001995), ABCA1 (Acc#AF165281), CD36 (Acc#L06850), FAS (Acc#U26644), GAPDH (Acc#J104038/M33197, GLUT4 (Acc#M20747), LXRα (Acc#U22662), LXR (Acc#U07132), Myogenin (Acc#X17651), MyoD (Acc#BC064493), PPARα (Acc#L02932), PPARδ (Acc#BC002715), PPARγ (Acc#L40904), SCD-1 (Acc#AB032261), SREBP1c (Acc#U00968)], GLUT1, (Acc#03195), GLUT3 (Acc#M20681), HKII (Acc#AF148513) were designed using Primer Express® (Applied Biosystems). Each target gene was quantified in triplicates and carried out in a 25 μl reaction volume according to the suppliers protocol. All assays were run for 40 cycles (95° C. for 12 s followed by 60° C. for 60 s). The transcription levels were normalized to the housekeeping control genes 36B4 and GAPDH.

[3] = 1 μM T0901317 or 10 μM 22-HC for 4 days
[4] = 10 μM chronic treatment (4 days)

Structure (SMILES)	FFA synthesis from labeled acetate, increase [1]	level of TAG from labeled acetate [1]	level of DAG from labeled acetate [1]	expression level of ABCA1, increase [2, 3]	expression of LXRα, increase [2, 3]	expression of SREBP1c, increase [2, 3]	mRNA expression of ACSL1, increase [2]	mRNA expression of FAS, increase [2]	mRNA expression of SCD-1, increase [2]	mRNA expression of fatty acid transporter CD36, increase [2]	mRNA expression of CD36, FAS, ACSL1 and SCD-1 compared to T0901317 [2]	reduction for DAG from labeled acetate ([1]; 10 μM for 4 days)	expression level of LXRbeta [2, 3]	ACSL1 mRNA expression, down-regulation [2, 4]	CD36 mRNA expression, down-regulation [2, 4]	SCD-1 mRNA expression, down-regulation [2, 4]
CC(C)CC[C@@H](O)[C@@H](C)[C@H]1CC[C@H]2[C@@H]3CC=C4C[C@@H](O)CC[C@]4(C)[C@H]3CC[C@]12C [Example 22-R-HC, 22-R-hydroxycholesterol]	3 fold	slight increase	did not change	17 fold	2-3 fold	2-3 fold	unaffected	unaffected	unaffected	unaffected	significantly reduced					
CC(C)CC[C@H](O)[C@@H](C)[C@H]1CC[C@H]2[C@@H]3CC=C4C[C@@H](O)CC[C@]4(C)[C@H]3CC[C@]12C [Example 22-S-HC, 22-S-hydroxycholesterol]	only tended to increase FFA synthesis slightly	tendency towards reduced TAG		very slightly (but insignificantly)	None of the genes described in FIG. 5A-B were significantly affected	None of the genes described in FIG. 5A-B were significantly affected					significantly reduced	~50%	None of the genes described in FIG. 5A-B were significantly affected	50-80%	50-80%	50-80%
O=S(=O)(c1ccccc1)N(CC(F)(F)F)c1ccc(C(O)(C(F)(F)F)C(F)(F)F)cc1 [Example T0901317]	2 fold	increased TAG	increased levels of DAG	14 fold	4-5 fold	4-5 fold	5 fold	4 fold	10 fold	2 fold						

Reference: patent US20100137266A1, “TREATMENT OF INSULIN RESISTANCE AND DISORDERS ASSOCIATED THEREWITH” (UNIVERSITETET I OSLO, priority 2006, published 2010)
